Test results published in PMC7024361, “Vaginal Polyelectrolyte Layer-by-Layer Films Based on Chitosan Derivatives and Eudragit® S100 for pH Responsive Release of Tenofovir” (Marine Drugs, 2020).
Values after ≈ are worked out from the molar mass of the structure shown.

Legend:
[1] = Material cytotoxicity, CellTiter Glo; assay type: cell-based; details: human, maximum concentration tested 1000 µg/mL
Description: To study cell toxicity, the materials were incubated in culture media at 37 °C and 5% CO2 for 48 h before the assay to ensure that any potential toxic component would be present in the dilutions to be tested. The cell culture was then treated with a suspension of base 5 serial dilutions of the most concentrated suspension (1000 µg/mL). Experiments were performed in lymphoblastic (MT-2) and macrophage-monocyte (THP-1) derived cell lines to evaluate toxicity on the immune cells present in vaginal or uterine mucosae, and in a uterine epithelial cell line (HEC-1A) to evaluate the potential damage to mucosal integrity (Figure 12).
Three human cell lines were used: a lymphoblastic cell line, MT-2 [65], a macrophage-monocyte derived cell line, THP-1 (ATCC® TIB-202) and a uterine/endometrial epithelial cell line, HEC-1A (ATCC® HTB-112™) (kindly provided by Maria Angeles Muñoz). All the cell lines were cultured in RPMI 1640 medium supplemented with 10 % (v/v) fetal bovine serum, 2 mM L-glutamine and […] streptomycin (all Whittaker M.A. Bio-Products, Walkerville, MD, USA) at 37 °C in a humidified atmosphere of 5 % CO2. To detach the HEC-1-A cells, the medium was removed and the flask was rinsed during 10 min with 1 to 2 mL of trypsin 0.25%—EDTA 0.03% solution. The medium was replaced every three days after cell centrifugation at 1500 rpm for 5 min.
Cell toxicity was measured using the CellTiter Glo kit (Promega, Madison, WI, USA). Cells were incubated in 96-well plates at a density of […] cells per well (MT-2 and THP-1) and 2 × 10^4 (HEC-1A) in complete medium. To assess the cytotoxic effect, cells were exposed to fresh medium containing different concentrations of lactic acid, tartaric acid, citric acid, TEC and ES100 suspensions, or the same concentration of PBS 1× as control. Experiments were performed in triplicate and the culture was maintained at 37 °C and 5% CO2 humidified atmosphere for 48 h. A standard method was followed to suspend the materials in PBS 1× [66]. After incubation for 48 h, the medium was removed from cell cultures and 50 µL of CellTiter Glo reactive was added to each well on the plate. Relative luminescence units (RLUs) were measured in a luminometer (Sirius, Berthold Detection Systems). Cytotoxic concentration 50 (CC50) values were calculated using GraphPad Prism Software (non-linear regression, log inhibitor versus response). The results of the cytotoxic assay are shown as the average of at least three individual experiments.

[2] = system: HIV; parameters: method as in PMID 22964245; details: women; cited from earlier work
[3] = HEC-1A uterine/endometrial epithelial cells
[4] = MT-2 lymphoblastic cells, MT-2, 48 h
[5] = THP-1 macrophage-monocyte derived cells, THP1, 48 h

SMILES: O=C(O)CC(O)(CC(=O)O)C(=O)O [Citric acid, citric acid]
- CC50 at 48 h [1, 3]: > 1000 µg/mL
- CC50 at 48 h [1, 4]: > 1000 µg/mL
- CC50 at 48 h [1, 5]: ~1000 µg/mL (≈ 5.2 mM)

SMILES: CC(O)C(=O)O (stereo not drawn) [Lactic acid, L(+)-Lactic acid]
- CC50 at 48 h [1, 3]: > 1000 µg/mL
- CC50 at 48 h [1, 4]: > 1000 µg/mL
- CC50 at 48 h [1, 5]: > 1000 µg/mL

SMILES: CCOC(=O)CC(O)(CC(=O)OCC)C(=O)OCC [TEC, triethylcitrate]
- CC50 at 48 h [1, 3]: > 1000 µg/mL
- CC50 at 48 h [1, 4]: ~1000 µg/mL (≈ 3.62 mM)
- CC50 at 48 h [1, 5]: > 1000 µg/mL

SMILES: C[C@H](Cn1cnc2c(N)ncnc21)OCP(=O)(O)O [TFV, Tenofovir]
- cervicovaginal fluid concentration that confers protection against HIV [2]: 1000 ng/mL

SMILES: O=C(O)C(O)C(O)C(=O)O (stereo not drawn) [Tartaric acid, L(+)-Tartaric acid]
- CC50 at 48 h [1, 3]: ~200 µg/mL (≈ 1.33 mM)
- CC50 at 48 h [1, 4]: > 1000 µg/mL
- CC50 at 48 h [1, 5]: > 1000 µg/mL
